Results as given in patent publication US20260174783A1, “HALOBETASOL PROPIONATE-LIDOCAINE FORMULATIONS” (priority 2023, published 2026).

Assay: In vitro permeation test: delivery of Halobetasol Propionate to the skin
Type: in vitro ADME
Settings: Formulations 1 and 2
Source text: The ability of the formulations of the present invention to deliver the APIs to their active sites was investigated by in vitro permeation tests.

## CCC(=O)O[C@]1(C(=O)CCl)[C@@H](C)C[C@H]2[C@@H]3C[C@H](F)C4=CC(=O)C=C[C@]4(C)[C@@]3(F)[C@@H](O)C[C@@]21C [Halobetasol Propionate, (6α, 11β, 16β)-21-Chloro-6,9-difluoro-11-hydroxy-16-methyl-17-(1-oxopropoxy) pregna-1,4-diene-3,20-dione]
  Halobetasol Propionate receiver media concentration: no receiver media concentration
